The values below come from patent US11779531B2, “Anti-inflammatory peptides, and uses thereof” (NURITAS LIMITED, priority 2015, dated 2023).

This assay has as its system TNF-α secretion in THP1 cells. The assay is described as follows: TNF-α secretion by LPS-stimulated THP-1 differentiated cells after synthetic peptide treatment (Biolegend ELISA). Particulars: THP-1 cells, synthetic peptide 100, 10 or 1 ng/ml for 24 h, then 10 ng/ml LPS 5 h; vs untreated control; concentration behind the value not stated. It is filed as cell-based, human. The method, then:
FIGS. 1 to 18: The effect of eighteen synthetic peptides of the invention on TNF-secretion in THP1 cells. All experiments were prepared in duplicate on three plates (6 wells/conditions). Significance was calculated using Students t-test (*p<0.05 compared to control, **p<0.01 compared to control, *** p<0.001 compared to control). The figures correspond with the following SEQ ID Nos: FIG. 1 is SEQ ID NO: 339, FIG. 2 is SEQ ID NO: 352, FIG. 3 is SEQ ID NO: 341, FIG. 4 is SEQ ID NO: 351, FIG. 5 is SEQ ID NO: 144, FIG. 6 is SEQ ID NO: 93, FIG. 7 is SEQ ID NO: 320, FIG. 8 is SEQ ID NO: 92, FIG. 9 is SEQ ID NO: 75, FIG. 10 is SEQ ID NO: 76, FIG. 11 is SEQ ID NO: 349, FIG. 12 is SEQ ID NO: 350, FIG. 13 is SEQ ID NO: 105, FIG. 14 is SEQ ID NO: 177, FIG. 15 is SEQ ID NO: 345, FIG. 16 is SEQ ID NO: 353, FIG. 17 is SEQ ID NO: 344, FIG. 18 is SEQ ID NO: 346.
FIGS. 26 to 28. The effect of three synthetic peptides of the invention on TNF-secretion in THP1 cells. All experiments were prepared in duplicate on three plates (6 wells/conditions). Significance was calculated using Students t-test (*p<0.05 compared to control, **p<0.01 compared to control, ***p<0.001 compared to control). The figures correspond with the following SEQ ID Nos: FIG. 26 is SEQ ID NO: 85, FIG. 27 is SEQ ID NO: 91, FIG. 28 is SEQ ID NO: 420.
TNF-α is secreted by macrophages in response to stimulation by endotoxins such as lipopolysaccharides (LPS). TNF-α is thought to be involved in systemic inflammation and dysregulation of TNF-α production is thought to be involved in many diseases. The Biolegend assay is a sandwich ELISA kit that is designed for the accurate quantitation of human TNF-α from cell culture supernatant, serum or plasma.
THP-1 monocytes were seeded in a 96 well plate at 10,000 cells per well in RPMI containing 10% fetal calf serum (FCS), 1% Pen/strep, 1% L-glutamine, 100 nM PMA and allowed to differentiated for 72 h prior to experimentation.
Following differentiation the cells were incubated with 100 ng/ml, 10 ng/ml or 1 ng/ml synthetic peptide for 24 h respectively.
Following treatment the cells were stimulated with 10 ng/ml LPS for 5 h and the quantity of TNF-α in the supernatant determined using the Biolegend assay ELISA kit.
Results were calculated as a percentage of the untreated control. An increase in optical density reading indicates greater quantity of TNF-a release into cell culture supernatant.
All experiments were prepared in duplicate on three plates (6 wells/conditions). Significance was calculated using Students t-test (*p<0.05 compared to control, **p<0.01 compared to control, ***p<0.001 compared to control).
In the case of 76 (EDDEEEEQGEEEINK) [compound 76], the “TNF-α DECREASE” value is on record as 9%.
Take “92 (FFELTPEKNQQLQDLDLFVNSVDLK) [compound 92]”: the “TNF-α DECREASE” value amounted to 13%.
With 344 (GYYGEQQQQPGMTR) [compound 344], the “TNF-α DECREASE” value is on record as 20%.
Then “85 (SKPHTIFLPQHTDADYILVVLSGK) [compound 85]”, with 80%; and 320 (RGPQQYAEWQINE) [compound 320], with 13%; and 105 (PSYEKQEDEEEKQK) [compound 105], with 9%.
The figure for 349 (TVFDGVLRPGQL) [compound 349] is 6%; for 352 (LDALEPDNR) [compound 352] it is 23%.
Then 341 (RGPQQYA) [compound 341], with 21%; and 345 (IDGYDTPVEGR) [compound 345], with 23%.
Take 346 (NGVLRPGQL) [compound 346]: the “TNF-α DECREASE” value is listed as 18%.
The figure for 420 (RLQSQNDQRGEIIHVK) [compound 420] is 80%.
Then 93 (QLEELSK) [compound 93], with 14%; and 75 (LSSGDVFVIPAGHPVAVK) [compound 75], with 11%; and “91 (PGQLQSFLLSGNQNQQNYLSGFSK) [compound 91]”, with 80%.
With 144 (SIFRALPND) [compound 144], the “TNF-α DECREASE” value came to 16%.
Then 339 (QSFLLSGNQNQQ) [compound 339], with 26%; and 351 (HGPVEMPYTLLYPSSK) [compound 351], with 18%.
